Results from PubChem BioAssay AID248 (DTP/NCI, 2004).
Values joined by “and” are separate entries in the source; they are usually repeats but may differ in a detail not shown here. Equal values may be shown once. Toxic doses and inconclusive results are not listed. No stated cut-off is given here; in the data, active means T/C of 150% or more; inactive means T/C below 125%.

Tested on: L1210 leukemia ip in BDF1 mice, survival T/C
Assay: NCI In Vivo Anticancer Drug Screen. Data for tumor model L1210 Leukemia (intraperitoneal) in B6D2F1 (BDF1) mice
Details: endpoint: mean survival time, higher = longer survival
Summary of the method: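 In this screen, tumor-bearing mice given compound are compared to those given vehicle, and their survival values are reported as a treated-to-control quotient.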

[1] = dose: 100.0 mg/kg/injection, schedule: Q01DX001 (ip), vehicle: Klucel (hydroxypropylcellulose) (HPC)
[2] = dose: 50.0 mg/kg/injection, schedule: Q01DX009 (ip), vehicle: saline
[3] = dose: 100.0 mg/kg/injection, schedule: Q01DX009 (ip), vehicle: saline
[4] = dose: 200.0 mg/kg/injection, schedule: Q01DX009 (ip), vehicle: saline
[5] = dose: 100.0 mg/kg/injection, schedule: Q04DX003 (ip), vehicle: Klucel (hydroxypropylcellulose) (HPC)
[6] = dose: 200.0 mg/kg/injection, schedule: Q04DX003 (ip), vehicle: Klucel (hydroxypropylcellulose) (HPC)
[7] = dose: 400.0 mg/kg/injection, schedule: Q04DX003 (ip), vehicle: Klucel (hydroxypropylcellulose) (HPC)
[8] = dose: 100.0 mg/kg/injection, schedule: Q01DX009 (ip), vehicle: Klucel (hydroxypropylcellulose) (HPC)
[9] = dose: 100.0 mg/kg/injection, schedule: Q04DX002 (ip), vehicle: Klucel (hydroxypropylcellulose) (HPC)
[10] = dose: 200.0 mg/kg/injection, schedule: Q01DX009 (ip), vehicle: Klucel (hydroxypropylcellulose) (HPC)
[11] = dose: 200.0 mg/kg/injection, schedule: Q04DX002 (ip), vehicle: Klucel (hydroxypropylcellulose) (HPC)
[12] = dose: 400.0 mg/kg/injection, schedule: Q01DX009 (ip), vehicle: Klucel (hydroxypropylcellulose) (HPC)
[13] = dose: 400.0 mg/kg/injection, schedule: Q04DX002 (ip), vehicle: Klucel (hydroxypropylcellulose) (HPC)
[14] = dose: 100.0 mg/kg/injection, schedule: Q01DX001 (ip), vehicle: saline
[15] = dose: 200.0 mg/kg/injection, schedule: Q01DX001 (ip), vehicle: saline
[16] = dose: 400.0 mg/kg/injection, schedule: Q01DX001 (ip), vehicle: saline
[17] = dose: 100.0 mg/kg/injection, schedule: Q01DX009 (ip), vehicle: saline with Tween-80
[18] = dose: 100.0 mg/kg/injection, schedule: Q04DX003 (ip), vehicle: saline with Tween-80
[19] = dose: 200.0 mg/kg/injection, schedule: Q01DX009 (ip), vehicle: saline with Tween-80
[20] = dose: 200.0 mg/kg/injection, schedule: Q04DX003 (ip), vehicle: saline with Tween-80
[21] = dose: 400.0 mg/kg/injection, schedule: Q01DX009 (ip), vehicle: saline with Tween-80
[22] = dose: 400.0 mg/kg/injection, schedule: Q04DX003 (ip), vehicle: saline with Tween-80
[23] = dose: 50.0 mg/kg/injection, schedule: Q01DX001 (ip), vehicle: saline
[24] = dose: 200.0 mg/kg/injection, schedule: Q01DX001 (ip), vehicle: Klucel (hydroxypropylcellulose) (HPC)
[25] = dose: 400.0 mg/kg/injection, schedule: Q01DX001 (ip), vehicle: Klucel (hydroxypropylcellulose) (HPC)

Measured: T/C

O=c1cc(NCc2ccccc2)[nH]c(=O)[nH]1
inactive: dose: 50.0 mg/kg/injection, schedule: Q01DX001 (ip), vehicle: Klucel (hydroxypropylcellulose) (HPC) 91 % of control | [1] 97 % of control

C/C=C\C(=O)OC.[W]
inactive: [2] 97 % of control | [3] 105 % of control | [4] 108 % of control

COC(=O)c1ccc(Cn2cnc3ncnc(Cl)c32)cc1
inactive: [5] 92 % of control | [6] 91 % of control | [7] 105 % of control

C[N+]1(CCCCCNC2=CC(=O)C(NCCCCC[N+]3(C)CCCCC3)=CC2=O)CCCCC1
inactive: dose: 0.1 mg/kg/injection, schedule: Q01DX001 (ip), vehicle: saline 96 % of control

COC(=O)c1ccccc1-n1c(-c2ccc([N+](=O)[O-])cc2)csc1=NC(=O)c1cccc([N+](=O)[O-])c1
inactive: [8] 91 % of control | [9] 92 % of control | [10] 91 % of control | [11] 95 % of control | [12] 88 % of control | [13] 100 % of control

NC(Cc1ccc(O)c(O)c1)C(=O)O (stereo not drawn)
inactive: [14] 93 % of control | [15] 95 % of control | [16] 97 % of control

OCC(O)C(O)C(O)C(O)C(O)c1nc2ccccc2[nH]1 (stereo not drawn)
inactive: [17] 101 % of control | [18] 97 % of control | [19] 98 % of control | [20] 93 % of control | [21] 96 % of control | [22] 103 % of control

CN(C)C1CCCCCCC1
inactive: dose: 75.0 mg/kg/injection, schedule: Q01DX001 (ip), vehicle: acetone 95 % of control

CCCCCCCCCCCCN (tested in a mixture with another compound)
inactive: dose: 87.5 mg/kg/injection, schedule: Q01DX001 (ip), vehicle: Klucel (hydroxypropylcellulose) (HPC) 93 % of control

Cc1cc(C)c(N2C(=O)C=CC2=O)c(C)c1
inactive: dose: 0.39 mg/kg/injection, schedule: Q01DX009 (ip), vehicle: saline with Tween-80 94 % of control | dose: 0.78 mg/kg/injection, schedule: Q01DX009 (ip), vehicle: saline with Tween-80 94 % of control | dose: 1.56 mg/kg/injection, schedule: Q01DX009 (ip), vehicle: saline with Tween-80 95 % of control and 108 % of control | dose: 6.25 mg/kg/injection, schedule: Q01DX009 (ip), vehicle: saline with Tween-80 88 % of control

c1ccc(C(c2ccccc2)n2ccnc2)cc1
inactive: dose: 37.5 mg/kg/injection, schedule: Q04DX003 (ip), vehicle: saline 94 % of control | dose: 75.0 mg/kg/injection, schedule: Q04DX003 (ip), vehicle: saline 102 % of control | dose: 150.0 mg/kg/injection, schedule: Q04DX003 (ip), vehicle: saline 105 % of control

CCOC(=O)C(C)(C)[Si](C)(C)C
inactive: [23] 97 % of control | [14] 103 % of control | [15] 97 % of control | [16] 97 % of control

O=C1C=Cc2cccc3cccc1c23
inactive: [5] 98 % of control | [6] 112 % of control

CC12C=CC(O1)C1C(=O)OC(=O)C12 (stereo not drawn)
inactive: [2] 91 % of control | dose: 75.0 mg/kg/injection, schedule: Q01DX001 (ip), vehicle: other 96 % of control | [3] 100 % of control | dose: 150.0 mg/kg/injection, schedule: Q01DX001 (ip), vehicle: other 98 % of control | [4] 88 % of control

O=C(Cn1ccc(O)cc1=O)c1cccs1
inactive: [17] 102 % of control | [18] 101 % of control | [19] 100 % of control | [20] 100 % of control | [21] 98 % of control | [22] 100 % of control

COC(=O)C(OC(=O)n1ccnc1)(c1ccccc1)c1ccccc1
inactive: dose: 100.0 mg/kg/injection, schedule: Q04DX002 (ip), vehicle: gum acacia 112 % of control | dose: 200.0 mg/kg/injection, schedule: Q04DX002 (ip), vehicle: gum acacia 94 % of control | dose: 400.0 mg/kg/injection, schedule: Q04DX002 (ip), vehicle: gum acacia 97 % of control

c1ccc([Si](c2ccccc2)(c2ccccc2)c2ccccc2)cc1
inactive: [18] 90 % of control | [20] 90 % of control | [22] 88 % of control

CC1OC(CO)C(O)C(O)C1NC(=O)c1ccccc1 (stereo not drawn)
inactive: dose: 50.0 mg/kg/injection, schedule: Q01DX009 (ip), vehicle: saline with Tween-80 98 % of control | [17] 103 % of control | [19] 103 % of control

O=C1/C(=C/c2ccco2)CC/C1=C\c1ccco1
inactive: [1] 93 % of control | [5] 94 % of control | [24] 101 % of control | [6] 96 % of control | [25] 95 % of control | [7] 96 % of control

CCCCCCCC(=O)Nc1ccccc1CC
inactive: [18] 93 % of control | [20] 95 % of control | [22] 86 % of control

CCCC(=O)OCC(=O)c1ccc(-c2ccccc2)cc1
inactive: [14] 96 % of control | [15] 94 % of control | [16] 94 % of control

CC(C)c1cccc(O)c(=O)c1
inactive: [18] 95 % of control | [20] 103 % of control

CCCCOC(=O)CCl
inactive: dose: 100.0 mg/kg/injection, schedule: Q04DX002 (ip), vehicle: saline with Tween-80 100 % of control | dose: 200.0 mg/kg/injection, schedule: Q04DX002 (ip), vehicle: saline with Tween-80 107 % of control

Cc1nn2cnnc2s1
inactive: [23] 98 % of control | [14] 101 % of control | [15] 98 % of control | [16] 101 % of control

Oc1cc(Br)ccc1C=Nc1ccc(N2CCCCC2)cc1
inactive: [8] 92 % of control | [5] 100 % of control | [10] 94 % of control | [6] 101 % of control | [12] 89 % of control | [7] 103 % of control

CCn1cc(C(=O)O)c(=O)c2ccc3ccccc3c21
inactive: [9] 100 % of control | [11] 103 % of control | [13] 100 % of control

CCCC1C(CC)CC(CC)C(O)C1(CC)CO (stereo not drawn)
inactive: dose: 100.0 mg/kg/injection, schedule: Q01DX009 (ip), vehicle: other 98 % of control | dose: 200.0 mg/kg/injection, schedule: Q01DX009 (ip), vehicle: other 95 % of control | dose: 400.0 mg/kg/injection, schedule: Q01DX009 (ip), vehicle: other 87 % of control

CCC/C(=N/NC(=O)CNC(=O)c1ccccc1)c1ccccc1
inactive: [17] 100 % of control | [19] 96 % of control | [21] 92 % of control

O=C(CS(=O)(=O)Cc1ccccc1)N1CCOCC1
inactive: [14] 95 % of control | [15] 93 % of control | [4] 89 % of control | [16] 93 % of control | dose: 400.0 mg/kg/injection, schedule: Q01DX009 (ip), vehicle: saline 102 % of control

CCC(C(=O)c1ccc(Cl)cc1)C(O)(C(F)(F)F)C(F)(F)F (stereo not drawn)
inactive: [1] 95 % of control | [5] 102 % of control | [24] 98 % of control | [6] 98 % of control | [25] 112 % of control | [7] 93 % of control

CCOC(=O)C(C#N)=C1CC(C)OC(C)C1 (stereo not drawn)
inactive: [18] 100 % of control | [20] 97 % of control | [22] 103 % of control

O=[N+]([O-])c1[nH]c(Cl)nc1Cl
inactive: dose: 25.0 mg/kg/injection, schedule: Q01DX001 (ip), vehicle: saline with Tween-80 97 % of control | dose: 50.0 mg/kg/injection, schedule: Q01DX001 (ip), vehicle: saline with Tween-80 103 % of control

O=c1[nH]nc2ccccn12
inactive: [1] 96 % of control | [5] 101 % of control | [24] 102 % of control | [6] 101 % of control | [25] 96 % of control | [7] 95 % of control

COc1cc([N+](=O)[O-])ccc1N
inactive: dose: 100.0 mg/kg/injection, schedule: Q01DX009 (ip), vehicle: saline sonified 116 % of control | [18] 105 % of control | dose: 200.0 mg/kg/injection, schedule: Q01DX009 (ip), vehicle: saline sonified 95 % of control | [20] 105 % of control | dose: 400.0 mg/kg/injection, schedule: Q01DX009 (ip), vehicle: saline sonified 104 % of control | [22] 115 % of control

O=C(O)CSCCc1ccccc1
inactive: [8] 105 % of control | [5] 106 % of control | [10] 94 % of control | [6] 105 % of control | [12] 100 % of control | [7] 100 % of control
